Source: a compilation of properties of binary mixtures (doi:10.1016/j.molliq.2020.113742)

Assay: xn = mol fraction of the nth substance listed

CCCC[N+]1(C)CCCCC1.F[P-](F)(F)(F)(F)F + CCCC[N+]1(C)CCCC1.F[P-](F)(F)(F)(F)F
viscosity [mPa·s], 102 kPa
Settings | 353.15 K | 363.15 K | 373.15 K | 383.15 K
x1 = 0.3 | 126 | 85 | 58 | –
x1 = 0.5 | – | 101 | 68 | 48
x1 = 0.7 | 194 | 125 | 84 | 59

CCCC[N+]1(C)CCCC1.F[P-](F)(F)(F)(F)F + CCCC[n+]1cccc(C)c1.F[P-](F)(F)(F)(F)F
viscosity [mPa·s], 101.3 kPa
Settings | x2 = 0.2 | x2 = 0.3 | x2 = 0.4 | x2 = 0.5 | x2 = 0.6 | x2 = 0.7 | x2 = 0.8 | x2 = 0.9
303.13 K | – | – | 746 | – | – | – | – | –
308.15 K | – | – | – | 480 | 427 | – | – | –
313.15 K | – | 448 | – | 352 | 313 | 277 | – | –
318.15 K | – | 334 | – | – | 234 | 208 | 190 | –
323.15 K | – | 253 | 220 | 199 | 178 | 159 | 146 | 130
328.15 K | 221 | 195 | – | 153 | 138 | – | 113 | –
333.15 K | 173 | 153 | 133 | 121 | – | 97 | 89 | 80
338.15 K | 138 | 121 | 106 | – | 87 | 78 | 71 | 65
343.15 K | – | 98 | – | 78 | – | 63 | 58 | 53
348.15 K | 90 | 79 | 70 | 63 | – | 52 | 48 | 43
353.15 K | 74 | 65 | – | 53 | 48 | 43 | 40 | 36
358.15 K | – | 55 | – | 44 | 40 | 36 | 33 | 30
363.15 K | 51 | 46 | 41 | – | – | 31 | 28 | 26
